Results on nine compounds are retold here after publication PMC6429356, “Development of Anthraquinone Analogues as Phosphoglycerate Mutase 1 Inhibitors” (Molecules, 2019).

For series [1], the target named is T1, PGAM1 (Homo sapiens, UniProt P18669).
T1 construct: His6 (C); made in house
The series can be described thus: PGAM1 enzymatic assay (enolase-pyruvate kinase-LDH coupled, OD 340 nm). The series is classed as biochemical. The note with it: optimized enzymatic assay; mean ± s.d. (n = 3). The procedure:
(§1) Firstly, 1 μL inhibitor in dimethyl sulfoxide (DMSO) incubated with 49 μL 4.6 nM recombinant PGAM1, then 50 μL enzyme mix containing 3 units/mL enolase (Sigma-Aldrich, Saint Louis, MO, USA), 3 units/mL recombinant pyruvate kinase M2 (Sigma-Aldrich), 0.6 units/mL recombinant lactatdehydrogenase (LDH, Sigma-Aldrich), 100 mM Tris-HCl, 100 mM KCl, 5 mM MgCl2, 1 mM adenosine diphosphate (ADP), 0.2 mM the reduced form of nicotinamide adenine dinucleotide (NADH) and 4 mM 3PG was added. PGAM1 activity was measured as the decrease in OD at 340 nm. In addition, we performed a counter screening in which 4mM 2PG was added to 50 μL reaction mix containing the indicated inhibitor, 3 units/mL enolase (Sigma-Aldrich), 3 units/mL recombinant pyruvate kinase M2 (Sigma-Aldrich), 0.6 units/mL recombinant LDH (Sigma-Aldrich), 100 mM Tris-HCl, 100 mM KCl, 5 mM MgCl2, 1 mM ADP and 0.2 mM NADH. The other three enzyme activity was measured as the decrease in OD at 340 nm.

In series [2] the test system is enolase-pyruvate kinase-LDH. The series can be described thus: Counter screening: control linked enzyme assay with 2PG. The series is classed as biochemical. Particulars: 0.5 μM compound, pyruvate kinase M2, LDH without PGAM1, mean ± s.d. (n = 2). As to the method:
as §1
In general terms: A counterscreen serves to expose hits that act by an unwanted route or on another target.

Series [3] relates to H1299 cells. Put plainly: Cell viability assay (MTT, 72 h), H1299. It is filed as cell-based. Particulars: Homo sapiens, NCI-H1299, proliferation, mean ± s.d. (n = 3). As to the method:
(§2) The H1299 cell line was obtained from Guangzhou Jenniobio Biotechnology Co., Ltd. (Guangzhou, China), PC9 and A549 cells were gifted from Deng Jiong’s lab in the School of Medicine, Shanghai Jiao Tong University, Shanghai, China). H1299, PC9 cells were cultured in RPMI-1640 medium and A549 cells were cultured in F-12K medium containing 10% fetal bovine serum (FBS), 100 units/mL of Penicillin and 100 μg/mL Streptomycin. In cell viability assays, 2000 H1299 cells, A549 cells or 1000 PC9 cells per well were seeded in 96-well plate. After attachment for 24 h, the cells were treated with indicated inhibitor for 72 h. After incubation with 0.5 mg/mL methylthiazolyldiphenyl-tetrazolium bromide (MTT) for 4 h, cell viability was measured as the OD at 570 nm.

A further series has as its system A549 cells. The series can be described thus: Cell viability assay (MTT, 72 h), A549. The series is classed as cell-based. Particulars: Homo sapiens, proliferation, mean ± s.d. (n = 3). As to the method:
as §2

For a further series, the system named is PC9 cells. The series can be described thus: Cell viability assay (MTT, 72 h), PC9. It is filed as cell-based. Particulars: Homo sapiens, PC-9, proliferation, mean ± s.d. (n = 3). As to the method:
as §2

In series [4] the test system is H1299 cells. The arrangement: method as in PMID 28611670, PMID 23153533, PMID 29530347. Particulars: Figure 1; read-out: H1299 cells IC50 (reported inhibitors); cited from earlier work.
Series [5] deals with PGAM1 mutations (F22A, R116H and R191H). The series can be described thus: Inhibition of PGAM1 mutants compared with wild type. The note with it: 5 μM compound. The series is classed as biochemical. An excerpt: To further understand the molecular mechanism of the anthraquinone derivatives interacting with PGAM1, we determined the X-ray structure of PGAM1 in complex with compound 9i at resolution of 1.98 Å (Table 5). Compound 9i occupied a novel allosteric site adjacent to substrate binding site with nice electron density (Figure 3A,B). The allosteric pocket was surrounded by the residues of F22, R90, K100, R116 and R191. In detail, the anthraquinone scaffold and sulfonamide of compound 9i interacted with the main chain carbonyl of K100 through water bridges (Figure 3C). In addition, a hydrophobic interaction was observed between F22 and chlorine-substituted phenyl ring of compound 9i (Figure 3C). […]
Firstly, 1 μL inhibitor in dimethyl sulfoxide (DMSO) incubated with 49 μL 4.6 nM recombinant PGAM1, then 50 μL enzyme mix containing 3 units/mL enolase (Sigma-Aldrich, Saint Louis, MO, USA), 3 units/mL recombinant pyruvate kinase M2 (Sigma-Aldrich), 0.6 units/mL recombinant lactatdehydrogenase (LDH, Sigma-Aldrich), 100 mM Tris-HCl, 100 mM KCl, 5 mM MgCl2, 1 mM adenosine diphosphate (ADP), 0.2 mM the reduced form of nicotinamide adenine dinucleotide (NADH) and 4 mM 3PG was added. PGAM1 activity was measured as the decrease in OD at 340 nm. […] The other three enzyme activity was measured as the decrease in OD at 340 nm. […]

Series [6] deals with T1, PGAM1. Put plainly: Substrate competitive assay with 3PG. It is filed as biochemical.
Another series is described as follows: Solubility. Particulars: remark in text, no method given. It is filed as physicochemical.
The target in series [7] is T1, PGAM1. The arrangement: method as in PMID 16200062, PMID 28611670, PMID 23153533, PMID 29530347. Particulars: Figure 1; read-out: PGAM1 IC50 (reported inhibitors); cited from earlier work.
Another series deals with MDA-MB-231 cells. Details: method as in PMID 16200062. The note with it: Figure 1; read-out: MDA-MB-231 cells IC50 (reported inhibitor); cited from earlier work.

Entries after “also recorded” stand apart in the source; their conditions may differ. Read-outs that look alike come from different tables or passages of the source.

T1 sequence (P18669 whole entry): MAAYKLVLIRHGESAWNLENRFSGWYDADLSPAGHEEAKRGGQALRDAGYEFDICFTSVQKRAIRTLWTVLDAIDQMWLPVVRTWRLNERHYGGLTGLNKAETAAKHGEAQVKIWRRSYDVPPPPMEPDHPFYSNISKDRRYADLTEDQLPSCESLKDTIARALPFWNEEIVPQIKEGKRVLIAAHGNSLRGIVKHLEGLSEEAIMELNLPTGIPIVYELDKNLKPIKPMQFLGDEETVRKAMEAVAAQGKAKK

Regarding `O=C1c2ccccc2C(=O)c2c1cc(NS(=O)(=O)c1c(Cl)cc(Cl)cc1Cl)c(O)c2O` [Compound 9l, 2,4,6-Trichloro-N-(3,4-dihydroxy-9,10-dioxo-9,10-dihydroanthracen-2-yl) benzenesulfonamide], the concentration for half-maximal inhibition (IC50) – broadly, the concentration that gives 50% inhibition – at PGAM1 [1] is 0.9 ± 0.26 µM; in the series on H1299 cells [3], 6.2 ± 1.2 µM; in the series with A549 cells it was over 50 µM; with PC9 cells, over 50 µM. Also, in series [2], the “Inhibition in the Control Linked Enzyme Assay (0.5 μM)” value (shortened to “Inhibition … (0.5 μM)”) was 0.2 ± 1.7%.

As for `O=C(O[C@@H]1Cc2c(O)cc(O)cc2O[C@@H]1c1cc(O)c(O)c(O)c1)c1cc(O)c(O)c(O)c1` [EGCG, (−)-epigallocatechin-3-gallate], the IC50 in the series with H1299 cells [4] was over 80 µM.

With `O=C1c2ccccc2C(=O)c2c1cc(NS(=O)(=O)c1ccc(OC(F)(F)F)cc1)c(O)c2O` [Compound 9c, N-(3,4-Dihydroxy-9,10-dioxo-9,10-dihydroanthracen-2-yl)-4-(trifluoromethoxy) benzenesulfonamide], the 50% inhibitory concentration (IC50) against PGAM1 [1] is 0.9 ± 0.07 µM; in the series with H1299 cells [3], 16.6 ± 1.8 µM; in the series with A549 cells, 8 ± 0.8 µM; in the series on PC9 cells, 10.2 ± 0.7 µM. The “Inhibition … (0.5 μM)” value in [2] is recorded as 3.7 ± 1.8%.

On to `O=c1c2c(O)cccc2oc2cc(NS(=O)(=O)c3ccc(N4CCCC4)cc3)c(O)c(O)c12` [Compound 12r], for which, in the series with H1299 cells [4], the IC50 is 5 µM.

For the compound `O=C1c2ccccc2C(=O)c2c1cc(NS(=O)(=O)c1ccc(Cl)cc1)c(O)c2O` [Compound 9i, 4-Chloro-N-(3,4-dihydroxy-9,10-dioxo-9,10-dihydroanthracen-2-yl) benzenesulfonamide], the IC50 against PGAM1 [1] was found to be 0.27 ± 0.04 µM; in the series on H1299 cells [3] it was 6.9 ± 1.2 µM; in the series on A549 cells, 12.7 ± 2.7 µM; in the series with PC9 cells, 13.8 ± 1 µM. For the same compound, in series [2], the “Inhibition … (0.5 μM)” value is on record as −6.4 ± 5.0%. Besides, the “Inhibition of PGAM1 mutations versus wild type” value in series [5] is “failed to inhibit mutations of PGAM1 (F22A, R116H and R191H) as effectively as the wild type”. For the same compound, the “Mode of inhibition with respect to substrate 3PG” value on PGAM1 [6] is “noncompetitive inhibitor; also recorded: non-competitive; also recorded: noncompetitive binding”. In addition, in the series “Solubility”, the Solubility entry is reported as “good solubility”.

Consider `O=C1c2ccccc2C(=O)c2c1cc(S(=O)(=O)Nc1ccc(C(F)(F)F)cc1)c(O)c2O` [PGMI-004A], for which the half-inhibitory concentration (IC50) in the series with H1299 cells [4] was 25.6 µM.

Consider `C#CCCCC(=O)OC(C)(C)C1CCC2(CO2)C(OC(=O)NC(Cc2c[nH]c3ccccc23)C(=O)OCc2ccccc2)C1` (centres unmarked) [MJE3], for which the half-inhibitory concentration (IC50) on PGAM1 [7] was 33 µM; with MDA-MB-231 cells, 19 µM.

For the compound `O=C1c2ccccc2C(=O)c2c1cc(NS(=O)(=O)c1ccc(I)cc1)c(O)c2O` [Compound 9p, 4-Iodo-N-(3,4-dihydroxy-9,10-dioxo-9,10-dihydroanthracen-2-yl) benzenesulfonamide], the IC50 at PGAM1 [1] was 0.47 ± 0.07 µM; in the series on H1299 cells [3], 17.3 ± 3.9 µM; with A549 cells, 10.3 ± 1.4 µM; with PC9 cells, 13.4 ± 1.8 µM. Also, the “Inhibition … (0.5 μM)” value in [2] is 1.9 ± 0.1%.

Turning to `O=C1c2ccccc2C(=O)c2c1cc(NS(=O)(=O)c1ccccc1OC(F)(F)F)c(O)c2O` [Compound 9d, N-(3,4-Dihydroxy-9,10-dioxo-9,10-dihydroanthracen-2-yl)-2-(trifluoromethoxy) benzenesulfonamide], the IC50 worked out at 2.2 ± 0.5 µM at PGAM1 [1], 13.9 ± 3.6 µM in the series with H1299 cells [3], 17 ± 4.9 µM in the series on A549 cells and 44.2 ± 1.5 µM with PC9 cells.
